Data: patent publication US20240285670A1, “THERAPEUTIC TREATMENT OF TUMORS BY BLOCKING THE HEME SYNTHESIS-EXPORT AXIS” (Università degli Studi di Torino, priority 2021, published 2024)

What was measured:
Caco2 cells = assay: Mitochondrial ATP levels in Caco2 cells; assay type: cell-based, human; details: FLVCR1a-silenced vs scramble shRNA Caco2 cells
Text: (A, C, E) Activities of the mitochondrial electron transport chain complexes I-IV. FLVCR1a-silenced Caco2 (A), SKCO1 (C) or C80 cells (E) are compared to cells expressing a scramble shRNA. Results were expressed as nmol NAD^+/min/mg mitochondrial protein for complex I, nmol reduced cytochrome c/min/mg mitochondrial protein for complexes II-III, nmol oxidized cytochrome c/min/mg mitochondrial protein for complex IV. Data represent mean±SEM, n=3. For statistical analyses, an unpaired Student's t-test was used; *=p<0.05, **=p<0.01. (B, D, F) Mitochondrial ATP levels measured by a bioluminescent assay kit. FLVCR1a-silenced Caco2 (B), SKCO1 (D) or C80 cells (F) are compared to cells expressing a scramble shRNA. Results are expressed as nmol/mg mitochondrial proteins. […] Results were expressed as nmol NAD^+/min/mg mitochondrial protein for complex I, nmol reduced cytochrome c/min/mg mitochondrial protein for complexes II-III, nmol oxidized cytochrome c/min/mg mitochondrial protein for complex IV. […] (H) Mitochondrial ATP levels measured by a bioluminescent assay kit in Caco2 cells overexpressing FLVCR1a (indicated as FLVCR1a+) compared to cells stably transduced with an empty vector. Results are expressed as nmol/mg mitochondrial proteins. […]
ATP levels in mitochondria extracts were assessed by the ATP Bioluminescent Assay Kit (Sigma-Aldrich, St. Louis, MO USA, catalog n° FLAA). […]

SKCO1 cells = assay: Activity of mitochondrial ETC complexes I-IV in SKCO1 cells; assay type: cell-based, human; details: FLVCR1a-silenced vs scramble shRNA SKCO1 cells
Text: (A, C, E) Activities of the mitochondrial electron transport chain complexes I-IV. FLVCR1a-silenced Caco2 (A), SKCO1 (C) or C80 cells (E) are compared to cells expressing a scramble shRNA. Results were expressed as nmol NAD^+/min/mg mitochondrial protein for complex I, nmol reduced cytochrome c/min/mg mitochondrial protein for complexes II-III, nmol oxidized cytochrome c/min/mg mitochondrial protein for complex IV. Data represent mean±SEM, n=3. For statistical analyses, an unpaired Student's t-test was used; *=p<0.05, **=p<0.01. (B, D, F) Mitochondrial ATP levels measured by a bioluminescent assay kit. FLVCR1a-silenced Caco2 (B), SKCO1 (D) or C80 cells (F) are compared to cells expressing a scramble shRNA. Results are expressed as nmol/mg mitochondrial proteins. Data represent mean±SEM, n=3. […] Results were expressed as nmol NAD^+/min/mg mitochondrial protein for complex I, nmol reduced cytochrome c/min/mg mitochondrial protein for complexes II-III, nmol oxidized cytochrome c/min/mg mitochondrial protein for complex IV. […] (H) Mitochondrial ATP levels measured by a bioluminescent assay kit in Caco2 cells overexpressing FLVCR1a (indicated as FLVCR1a+) compared to cells stably transduced with an empty vector. Results are expressed as nmol/mg mitochondrial proteins. […]
The activity of mitochondria respiration complexes was measured according to (Wibom et al., 2002).

With “FLVCR1a shRNA: shRNA specifically down-regulating FLVCR1a without targeting FLVCR1b; pLKO.1 lentiviral clone TRCN0000059599, antisense SEQ ID No.: 2 (antisense TTGCTAATGATGCTGTACTGG; sense CCAGTACAGCATCATTAGCAA)” as the substance, how does the “ATP levels in mitochondria” value (Caco2 cells) read?
Its value is “significantly higher ATP levels in mitochondria”.

And the ETC complexes activity (SKCO1 cells)?
Its ETC complexes activity is “increased ETC complexes activity”.
